Entries after “also recorded” stand apart in the source; their conditions may differ. Like-named read-outs stand apart in the source and are kept apart here.
Tests used:
[1] = Quantification of photostationary states (PSS) by HPLC at the isosbestic point; type: physicochemical; settings: for ratio between the two isomers: cis (Z) / ratio between the two isomers: trans (E): HPLC
Experimental: High-performance Liquid Chromatography (HPLC) analysis were performed with a Waters Alliance e2695 Separation Module paired with a Waters 2998 UV/vis Photodiode Array Detector (Diode array 190-800 nm) and a Waters AQUITY QDa Mass Detector (positive ionization ESI+). Samples were injected on a XSelect CSH C18 […] 4.6x50 mm analytical column with the following mobile phases, respectively called line A and B: water with formic acid 0.1% (v/v) and acetonitrile with formic acid 0.1% (v/v). The injections were eluted with the following method: flow 1.6 mL/min, gradient 0.00-4.50 min, 5-100% B; 4.50-5.00 min, 100-5% B.
(§1) The photochromic response was characterized by the absorption spectra after irradiation with LEDs at λ = 365 nm, 380 nm, 420 nm, 460 nm, 500 nm. The maximal changes in the spectra were associated to the optimal λ to isomerize from Z to E and vice versa. Resistance to photofatigue was tested by cycles of illuminations between the optimal λ. The kinetics of the spontaneous relaxation in the dark (time course of absorption at a fixed λ) was measured to quantify the relaxation lifetime by fitting the plots to an exponential decay curve. The UV-vis absorption analysis for the photochromic characterization has been carried out at room temperature. Stock solutions were prepared in the concentration of 10 mM in DMSO. The solutions used for the measurements were obtained by diluting the stock solutions in PBS at the desired final concentration (in the range of 30 µM and 50 µM). Finally, the photostationary states (PSS) were quantified using HPLC at the λ corresponding to the isosbestic point.
The quantification of photostationary states (PSS) has been measured by HPLC analysis. The peaks at the Diode Array have been detected and integrated at the wavelength corresponding to the isosbestic point.

[2] = Photochemical characterization by UV-vis absorption (photoisomerization, thermal relaxation in the dark, photofatigue); type: physicochemical
Description: All reagents and solvents were purchased from Sigma-Aldrich and Cymit Quimica S.L. and were used without any further purification. Reactions were monitored by analytical thin layer chromatography (TLC) on commercial silica gel 60 F254 aluminum foils 20 x 20 cm (Merck). Spots were visualized under 254 or 365 nm UV lamp and/or with the use of an appropriate stain (ninidrine solution, Dragendorff reagent, alkaline potassium permanganate solution or phosphomolybdic acid solution 5% in ethanol). Compounds were purified by flash chromatography on PanReac Applichem silica gel 60 (40-63 µm) as stationary phase; the mobile phases are specified for each compound. All the UV/vis spectra and experiments were registered with Shimadzu UV-1800 UV-VIS spectrophotometer using quartz cuvettes (10 mm light path).
as §1, with “The” for “The photochromic response was characterized by the absorption spectra after irradiation with LEDs at λ = 365 nm, 380 nm, 420 nm, 460 nm, 500 nm. The”

[3] = system: primary hippocampal neurons; test: Current clamp recording of action potential firing in cultured primary hippocampal neurons; type: cell-based, Sprague-Dawley rat; settings: Rattus norvegicus, Hippocampal neuron
Experimental: Procedures were performed in accordance with the European guidelines for animal care and use in research and were approved by the Animal Experimentation Ethics Committee at the University of Barcelona. Sprague-Dawley rat pups (P 1-5) were sacrificed by decapitation, hippocampi were isolated and treated with 0.1% trypsin in HBSS (10 min, 37°C). Neurons were plated on Poly-D-Lysine (PDL)-coated 16 mm coverslips (0.5-1 x 10^5 cells) and incubated at 37°C, 5% CO2 for 1,5 hours (to allow cells adhesion) in MEM supplemented with heat-inactivated FBS (5%), heat-inactivated HS (5%), penstrep (10 Ul/ml), L-glutamine (2mM) and glucose (20mM). Cells were cultured in Neurobasal A medium, supplemented with B-27 (5%), penstrep (5 Ul/ml), glutaMAX (0,5x) and glucose (15mM). On DIV 3 cultured cells were treated with 1 µM of Ara-C to prevent proliferation of non-neuronal cells. 50% of the maintenance medium was exchanged every 4 days.
Whole-cell recordings were performed at room temperature using an EPC-10 amplifier (HEKA Elektronik, Germany) and Patch Master software (HEKA). […] Firing of primary hippocampal neurons was recorded in current clamp configuration. […]
Data was analyzed using Igor Pro 6.05 (WaveMatrics, USA) and Origin 8.0 (OriginLab, USA) software. […] Statistical difference between groups was evaluated with Mann-Whitney test and was considered significant at the value of P below 0.05.

[4] = system: zebrafish (Danio rerio) larvae; test: Behavioural study (swimming activity) in zebrafish larvae under light cycles; type: in vivo
Experimental: Wild-type zebrafish embryos (Tupfel long-fin strain) were purchased from the animal facility of the Barcelona Biomedical Research Park (PRBB) and raised in darkness for 7 days at 28 °C in UV filtered tap water in Petri dishes (daily cleaned and refilled). Animal development was checked every 24 hours. Unhealthy or abnormal embryos and larvae were removed and euthanatized in tricaine methanosulfonate (400 mg/l). All experiments and procedures were conducted according to the European Directive 2010/63/EU.
Behavioral studies were conducted on wild-type zebrafish larvae at 7 days post-fertilization (dpf). Vehicle and compounds were added with a multichannel pipette to exclude differences related to a delay in the application of each solution. Movements were recorded and analyzed using the ZebraBox tracking system and the ZebraLab software (ViewPoint Life Science, France). On the morning of the test, 7-dpf larvae were moved into a new batch of fresh water and checked for motility capabilities and possible physical mutations. Larvae were then randomly divided into control and treatment groups. Each individual was placed in a separate well of a 96-well plate, each containing 200 µl of fresh UV filtered water and left undisturbed in the dark for 30 min to get acquainted with the new setting (habituation time). Afterwards, 100 µL of water were removed from each well and replaced with 100 µl of a double concentrated vehicle or treatment solution. At this point, the plate was inserted into the ZebraBox and the recording period started. Animals were exposed to controlled cycles of dark, 380 nm, 420 nm, 500 nm wavelengths or with a halogen lamp (warm white light), using the illumination protocols represented by coloured-shaded areas in their respective graphs (see figures). Illumination at 380, 420 and 500 nm was performed with a built-in array of 12 LEDs placed 12 cm away from the multiwell plate. The halogen lamp used was the Volpi Intralux 4000 (115 W). Light intensities, measured with a Newport 1916-C optical power meter coupled to a Newport 918D-SL-OD3R detector, were 0.21 mW·cm^-2 (380 nm), 2.43 mW·cm^-2 (420 nm) and 0.69 mW·cm^-2 (500 nm). All experiments were conducted between 12.00 and 15.00 pm (UTC+01:00).
Alterations of locomotor activity were determined by monitoring and measuring fast movements, swimming distances and duration of high-speed swimming. In particular, the dependent variables measured included: total distance travelled, distance travelled at ≤ 2 mm·s^-1, distance travelled at 2-6 mm·s^-1, distance travelled at ≥ 6 mm·s^-1, time spent moving, time spent freezing, and number of bursts. The arbitrary cut-off for motility (6 mm·s^-1) was chosen because no variance was found among the groups at lower speeds. Figures show distances travelled over 6 mm·s^-1 and total movements (addition of movements below cut-off high speed swimming) were not considered to limit the error of the video recording on minimal movements. Data were analysed by two-way ANOVA with Tukey's post-hoc test for statistical significance (GraphPad Prism 6).

[5] = after irradiation at 400 nm for 3 minutes, 374 nm
[6] = after irradiation at 500 nm for 3 minutes, 374 nm
[7] = benchtop dark condition, isosbestic wavelength 374 nm

Structure (SMILES): NC(=O)N1Cc2ccccc2/N=N\c2ccccc21 [compound of formula (II), (Z)-dibenzo[c,g][1,2,5]triazocine-11(12H)-carboxamide]
- ratio between the two isomers: cis (Z) [1, 5]: 49%
- ratio between the two isomers: trans (E) [1, 5]: 51%
- ratio between the two isomers: cis (Z) [1, 6]: ≥ 99%
- ratio between the two isomers: trans (E) [1, 6]: not detected
- ratio between the two isomers: cis (Z) [1, 7]: ≥ 99%
- ratio between the two isomers: trans (E) [1, 7]: not detected
- isomer present in the dark ([1]; in the dark, at benchtop conditions): fully converted into the Z inactive isomer
- E to Z back-isomerization ([1]; irradiation at ≥ 500 nm): full back-isomerization to the Z inactive form
- E to Z isomerization ([2]; 90 W EPV halogen lamp (600-700 nm), after one minute irradiation): full conversion
- E to Z isomerization ([2]; 590 nm LED, over 1 h irradiation): quantitative conversion to the Z isomer
- half-life for relaxation in the dark t1/2 ([2]; dark conditions, PBS 0.01M, 25°C): 3.2 h
- resistance to several cycles of illumination (photofatigue) ([2]; several cycles of illumination): without degradation or loss in photochromic properties; also recorded: without loss in absorption or degradation
- activity at 30 µM ([3]; spontaneously firing neurons, without blue light (Fig 2B: 500 nm), P > 0.05, mean ± SD, read-out: frequency of the action potentials generation, % from control): 72 ± 5%
- activity at 30 µM ([3]; under blue light (400 nm) illumination, P < 0.01, n=4, mean ± SD, read-out: frequency of the action potentials generation (firing), % from control): 28 ± 13%
- distance swum ([4]; 1 µM, after the third illumination with blue light (420 nm)): significant increase of the distance swum
- swimming distances ([4]; 10 µM, average of all green (500 nm) periods): slightly increased
- swimming activity ([4]; 10 µM, under blue light (420 nm)): increasing the activity of the larvae
- swimming activity ([4]; 10 µM, under green illumination (500 nm)): returning to control levels
- swimming activity ([4]; 50 µM, first blue light (420 nm) illumination periods, effect reduced with consecutive blue illumination): significantly hyperactive
- signs of toxicity or distress in the larvae ([4]; 1-50 µM, 7 dpf zebrafish larvae): No signs of toxicity or distress
- swimming distances ([4]; all concentrations (1, 10, 50 µM), green light (500 nm), each period compared individually to control): did not alter significantly the swimming distances
- effect on swimming behaviour in the dark ([4]; first 20 minutes of the experiment, full darkness, 7 dpf larvae): no effects
- hyperactivity of treated larvae ([4]; illumination with warm white light (halogen lamp), all treated groups): blocked the hyperactivity
